# Laboratory results reported in US20100152225A1, “HYDROGENATED PYRIDO [4,3-B] INDOLES SUCH AS DIMEBON FOR TREATING CANINE COGNITIVE DYSFUNCTION SYNDROME” (priority 2006, published 2010).
# Entries after “also recorded” stand apart in the source; their conditions may differ.
# Key:
# Beagle Dogs [1] = test: Curiosity Test (exploratory behavior, open-field arena); assay type: in vivo, Canine; settings: for rearing frequency, controls versus dose group: FIG. 10
# Description: (§1) Dogs were weighed prior to study initiation. Capsules containing dimebon were prepared for each dog according to weight. The following doses of dimebon were used: 2, 6 and 20 mg/kg. Technicians not otherwise involved in the study prepared the capsules. During the control phase of the study, subjects were administered empty gelatine capsules. The test and control articles were administered to the dogs PO within meatballs of moist dog food once daily. Individual subjects were administered the capsule at the same time on each treatment day.
# (§2) The design of the study consisted of four 7 day test blocks (a test block refers to the 3 day washout period combined with the 4 day treatment/testing period). The first test block was a control and no subject received treatment during those seven days. Subsequently, the study then followed a Latin-square design, in which all of the subjects were tested at all the three dose levels of the test article in a different order (see Table 3 below). To accomplish this, the twelve subjects were divided into six groups of two subjects balanced for sex and age to the extent possible.
# After completing the control test block, each group received three doses of the test article in the order prescribed for that group. For each test block, subjects received their respective treatment for the first four days. On the fourth day of each test block, subjects were tested on the curiosity test twice; the first was one hour after article administration and the second was four hours after article administration. The remaining three days were considered washout days for each test block (Table 4).
# For the curiosity test, each behavioral measure was analyzed individually using a repeated measures ANOVA with dose (control, 2, 6, and 20 mg/kg), test (first and second) as within-subject variables and order as a between-subject variable.
# This is a test of exploratory behavior, which assesses both attention to environment and locomotor activity (Siwak et al. (2001) Effect of Age and Level of Cognitive Function on Spontaneous and Exploratory Behaviors in the Beagle Dog. Learning and Memory, 8:[…].). Subjects were placed in the open-field arena for a 10-minute period. Seven objects were placed in the arena and the subjects were permitted to freely explore the room and the objects.
# The open field activity arena consisted of an empty test room (approximately 8′×10′) with strips of electrical tape applied to the floor in a grid pattern of rectangles to facilitate tracking. The floor of the test room was mopped prior to testing and between dogs to reduce olfactory cues from affecting testing. For tests conducted in the open field, the dogs were placed in the test room and their behavior was videotaped over a 10-minute period. On two of the test sessions, subjects were tested for 5 rather than 10 minutes. Accordingly, the data from those two dogs were not included in the initial analysis, which was carried out over all dose levels. However, all dogs were tested on the control and 20 mg/kg dose and a separate analysis was carried out comparing control and high dose treatments.
# The movement pattern of the dog within the test room was recorded. In addition, keyboard keys were pressed to indicate the frequency of occurrence of the various behaviors including: sniffing, urinating, grooming, jumping, rearing, inactivity and vocalization. The software also provided a total measure of distance for loco-motor activity.
# In addition to general activity, the interactions with the objects (picking-up, contacting, sniffing and urinating on the objects) were assessed and used as measures of exploratory behavior.
# Beagle Dogs [2] = test: General Activity Test (Actiwatch post-dose activity); assay type: in vivo, Canine; settings: for activity as a function of dose and treatment day: FIG. 2, suggestion of a drug effect
# Description: as §1, §2
# At the start of the study, an Actiwatch collar was placed on each dog and the collar remained on for the study duration of the study. All behavioral testing followed previously established protocols. For behavioral tests conducted in the open field arena, data analyses were conducted using the DogAct behavioral software (CanCog Technologies Inc., Toronto, ON, Canada). Actiware-Rhythm® software was used to obtain activity counts for the day-night measure.
# The Actiwatch data were analyzed to look at both changes in activity pattern temporally linked to treatment and changes in day/night activity.
# (§3) To assess changes in activity linked to the treatment condition, hourly activity over a five hour period after dosing was calculated. The data were then analyzed with a repeated measures analysis of variance (ANOVA), with time post dosing (1-5 hours), treatment days (1-4 for each condition) and dose (control, 2, 6, and 20 mg/kg) as within subject variables. Test order served as a between subject variable in the initial analysis. To examine day night-activity levels, day and night activity levels were calculated for each 24-hr period. The data were first analyzed with a repeated measures ANOVA, with dose (control, 2, 6, and 20 mg/kg), treatment day (1-4 for each condition), and phase (day and night) as within-subject variables. Once again order served as a between-subject variable.
# (§4) Post-dose activity patterns and twenty-four hour activity rhythms were assessed using the Actiwatch method, which detects alterations in activity and changes in phase of the activity cycle as described previously (Siwak et al. (2003) Circadian Activity Rhythms in Dogs Vary with Age and Cognitive Status. Behavioral Neuroscience, 111:813-824). Briefly, general activity patterns were monitored for 28 continuous days using the Mini-Mitter® Actiwatch-16® activity monitoring system (Mini-Mitter Co., Inc., Bend, Oreg.) adapted for dogs. The Actiwatch contained an activity sensory that was programmed to provide counts of total activity at 5 minute intervals. Putting the Actiwatch on a dog's collar allowed for recording uninterrupted patterns of activity and rest.
# The first analysis of the Actiwatch data was intended to provide an overall picture of the post-dosing effect of the compound on behavioral activity. Accordingly, data for the 5-hour period following dosing was first segregated into 5 one-hour blocks. Thus, each subject's data for each treatment day consisted of 5 consecutive one-hour activity scores. The data were then analyzed with a repeated measures analysis of variance, with time post dosing (1-5 hours), treatment days (1-4 for each condition) and dose (control, 2, 6, and 20 mg/kg) as within subject variables. Test order served as between subject variables in the initial analysis. […]
# Beagle Dogs [3] = test: Day Night Activity (Actiwatch day-night activity rhythms); assay type: in vivo, Canine
# Description: as §1, §2
# At the start of the study, an Actiwatch collar was placed on each dog and the collar remained on for the study duration of the study. All behavioral testing followed previously established protocols. […]
# as §3, with “Test order served as a between subject variable in the initial analysis.” left out, “Once again order served as a between-subject variable.” left out
# as §4, with “The Actiwatch contained an activity sensory that was programmed to provide counts of total activity at 5 minute intervals. Putting the Actiwatch on a dog's collar allowed for recording uninterrupted patterns of activity and rest.” left out
# The day/night activity data were analyzed with a repeated-measures ANOVA, with dose, wash-in day, and phase as within-subject variables and test order as a between-subject variable.
# Beagle Dogs [4] = test: Observation of abnormal behavioral responses / behavioral toxicity during study; assay type: in vivo, Canine; settings: 2, 6 and 20 mg/kg
# Excerpt: All dogs received veterinary examinations prior to initiation in the study. Over the course of the study, trained personnel recorded all adverse events and contacted the responsible veterinarian or study director when necessary.
# The effect also appeared dependent on baseline activity level, the greater the baseline level the smaller the treatment effect.
# dogs = dogs with CCDS; reported in FDA Consumer Magazine 2000; cited from earlier work
# [5] = 2, 6 and 20 mg/kg, dihydrochloride
smiles,measurement,setting,value
"Cc1ccc2c(c1)c1c(n2CCc2ccc(C)nc2)CCN(C)C1.Cl.Cl [dimebon, 2,8-dimethyl-5-(2-(6-methyl-3-pyridyl)-ethyl)-2,3,4,5-tetrahydro-1H-pyrido(4,3-b)indole dihydrochloride]",change of rearing frequency over the two tests,Beagle Dogs [1]; 2 mg/kg,decrease in rearing frequency
same,object sniff frequency compared to control,"Beagle Dogs [1]; 2 mg/kg, p=0.085660, FIG. 14",lower occurrence of object sniffing
same,change of rearing frequency over the two tests,Beagle Dogs [1]; 6 mg/kg,rearing frequency increased over the two tests
same,change of rearing frequency over the two tests,Beagle Dogs [1]; 20 mg/kg,rearing frequency increased over the two tests
same,exploratory behavior,Beagle Dogs [1]; 20 mg/kg,increase in exploratory behavior
same,frequency of object pickup,"Beagle Dogs [1]; 20 mg/kg compared to 2 mg/kg, p=0.10445, FIG. 12",greater frequency of picking up objects
same,locomotor activity on the second curiosity test,"Beagle Dogs [1]; 20 mg/kg, 4 h after administration",increased locomotor activity
same,object contact duration compared to controls,"Beagle Dogs [1]; 20 mg/kg, especially on the second test, FIG. 13",increased contact
same,duration of action,"Beagle Dogs [1]; 20 mg/kg, manifested by locomotor activity on second curiosity test and night time activity",longest duration of action
same,change of inactivity over the two tests,"Beagle Dogs [1]; 20 mg/kg, secondary analysis control vs high dose, interaction p=0.098076, FIG. 11",decreased over the two tests
same,change of object sniff frequency over the two tests,"Beagle Dogs [1]; 20 mg/kg, secondary analysis, interaction p=0.061260, FIG. 16",object sniff frequency increased over the two tests
same,locomotor activity on first and second test,"Beagle Dogs [1]; 20 mg/kg, tests 1 h and 4 h after administration, FIG. 8",activity was increased on both tests
same,effect on most behaviors in the exploratory behavior test,"Beagle Dogs [1]; 2, 6 and 20 mg/kg",did not significantly affect most behaviors
same,exploration (summary of exploratory behavior test),Beagle Dogs [1]; [5],generally increased; also recorded: dose-dependent trend towards increased exploration
same,"rearing frequency, dose effect, secondary analysis","Beagle Dogs [1]; control vs 20 mg/kg only, p=0.086315",marginally significant effect of dose
same,"locomotor activity, dose effect (ANOVA)","Beagle Dogs [1]; control, 2, 6, 20 mg/kg",not significant
same,"urination frequency, effect of treatment","Beagle Dogs [1]; control, 2, 6, 20 mg/kg, FIG. 9",no effects of treatment were found
same,"rearing frequency, dose effect (ANOVA)","Beagle Dogs [1]; control, 2, 6, 20 mg/kg, p=0.000846",significant dose effect
same,"object contact duration, dose effect (ANOVA)","Beagle Dogs [1]; control, 2, 6, 20 mg/kg, p=0.001384",significant dose effect
same,"object sniff frequency, dose effect (ANOVA)","Beagle Dogs [1]; control, 2, 6, 20 mg/kg, p=0.056856",marginally significant effect of dose
same,"object pick-up, dose effect (ANOVA)","Beagle Dogs [1]; control, 2, 6, 20 mg/kg, p=0.079968",marginally significant effect of dose
same,"rearing frequency, controls versus dose group","Beagle Dogs [1]; high dose group, p=0.025826",controls showing significantly less rearing
same,"rearing frequency, controls versus dose group","Beagle Dogs [1]; low dose group, p=0.0258",controls showing significantly less rearing
same,activity at 5 hours post-dosing compared to control,"Beagle Dogs [2]; 6 mg/kg PO once daily, FIG. 1",generally higher
same,activity as a function of dose and treatment day,Beagle Dogs [2]; 6 mg/kg,increased activity
same,activity at 5 hours post-dosing compared to control,"Beagle Dogs [2]; 20 mg/kg PO once daily, FIG. 1",generally higher
same,activity as a function of dose and treatment day,Beagle Dogs [2]; 20 mg/kg,increased activity
same,behavioral activity (summary),Beagle Dogs [2]; [5],trend towards an increase in activity with an increase in dosage; also recorded: moderate increase in behavioral activity
same,total activity as a function of dose,"Beagle Dogs [2]; control, 2, 6, 20 mg/kg, FIG. 3, not statistically significant, p=0.192360",dose-dependent increase in activity
same,decrease of activity with time following treatment,"Beagle Dogs [2]; two highest dose levels, FIG. 1",the decrease is smaller
same,ratio of day time activity to night time activity,"Beagle Dogs [3]; 2 mg/kg, FIG. 6, did not achieve statistical significance",highest
same,day:night activity ratio,Beagle Dogs [3]; 20 mg/kg,not altered
same,night time activity,Beagle Dogs [3]; 20 mg/kg,increased night time activity
same,day/night activity as a function of dose,"Beagle Dogs [3]; control, 2, 6, 20 mg/kg, did not achieve statistical significance, p=0.158556",overall dose-dependent increase in activity
same,behavioral toxicity,Beagle Dogs [4],nor were there other indications of behavioral toxicity
same,stereotypical behavior,Beagle Dogs [4],None of the dogs showed any stereotypical behavior
same,abnormal behavioral response,Beagle Dogs [4]; dihydrochloride,"None of these results, however, is indicative of an abnormal behavioral response; also recorded: does not cause any obvious abnormal behavioral responses"
C#CCN(C)[C@H](C)Cc1ccccc1 [Anipryl®],fraction of cases in which it does not work,dogs,about ⅓
